This is an account of results in patent US6710048B2, “Pyrazine derivatives as modulators of tyrosine kinases” (Ortho-McNeil Pharmaceutical, Inc., priority 2000, dated 2004).

Test [1] has as its target T1, EGFR (epidermal growth factor receptor) (Homo sapiens, UniProt P00533).
T1 construct: is purified from human A431 cell membranes; purchased Sigma E3641; host or cells: A431 cell membranes
As to the kind of experiment: EGF-R kinase selectivity assay. Format: biochemical. To be noted: Table 4 kinase selectivity. As for the experimental part:
Assays to test compound inhibition of other kinases were preformed using methods that measure the amount of phosphorylation of a biotinylated peptide substrate. Biotinylated peptide substrates were selected from the literature as appropriate for the enzyme being evaluated. […] Assay conditions vary slightly for each protein kinase, for example, insulin receptor kinase requires 10 mM MnCl2 for activity and Calmodulin-dependent protein kinase requires calmodulin and 2 mM CaCl2. The reaction mixture was dispensed into the wells of a streptavidin coated Flashplate and 1 μl drug stock in 100% DMSO was added to a 100 μl reaction volume resulting in a final concentration of 1% DMSO in the reaction. Enzyme was diluted in 50 mM Tris-HCl pH=8.0, 0.1% BSA and added to each well. The reaction was incubated for one hour at 30° C. in the presence of compound. […] The plate was read on a scintillation counter to determine ^33P-γ-ATP incorporated into the immobilized peptide. […] A maximum and minimum signal for the assay was determined on each plate. The IC50 was calculated from the dose response curve of the percent inhibition of the maximum signal in the assay according to the formula [max signal−background/test compound signal−background (100)=% inhibition] by graphing the percent inhibition against the log concentration of test compound. […]

For test [2], the system named is A375 human melanoma cells. As to the kind of experiment: In vivo inhibition of tumor growth (A375 in athymic mice). Set-up: species or system mouse. To be noted: A375 cells s.c. in male athymic mice, intraperitoneally once a day for 30 days, 50 mg/Kg and 5 mg/Kg (FIG. 1). The source says:
The in vivo effect of a compound on the growth of human tumor cells can be evaluated by implanting human tumor cells into the hindflank of athymic mice and administering test compound to the mice. Such assays are useful in identifying and confirming compounds that are useful for inhibiting angiogenesis or to identify compounds that can inhibit VEGF activity and therefor are useful for treating a variety of cancers or other diseases associated with abnormal or aberrant angiogenesis, such as those diseases discussed supra. Human tumor cells originating from a variety of different cancer types, such as A375 human melanoma cells, were implanted subcutaneously into the hindflank of male athymic mice (Charles River) and allowed to establish a sizeable tumor for 6-10 days as determined by caliper measurements. Test compound was then administered by injecting the compound formulated in an appropriate vehicle, here saline was used as the vehicle, intraperitoneally into the mice once a day for 30 days. The test compound can also be administered by other routes such as orally, sub cutaneously or by intravenous infusion. The size of the tumor in this study was measured every four days and the degree of inhibition was determined by comparing drug-treated animals to animals that were injected with vehicle only. […]

T1 sequence (P00533 25-1210): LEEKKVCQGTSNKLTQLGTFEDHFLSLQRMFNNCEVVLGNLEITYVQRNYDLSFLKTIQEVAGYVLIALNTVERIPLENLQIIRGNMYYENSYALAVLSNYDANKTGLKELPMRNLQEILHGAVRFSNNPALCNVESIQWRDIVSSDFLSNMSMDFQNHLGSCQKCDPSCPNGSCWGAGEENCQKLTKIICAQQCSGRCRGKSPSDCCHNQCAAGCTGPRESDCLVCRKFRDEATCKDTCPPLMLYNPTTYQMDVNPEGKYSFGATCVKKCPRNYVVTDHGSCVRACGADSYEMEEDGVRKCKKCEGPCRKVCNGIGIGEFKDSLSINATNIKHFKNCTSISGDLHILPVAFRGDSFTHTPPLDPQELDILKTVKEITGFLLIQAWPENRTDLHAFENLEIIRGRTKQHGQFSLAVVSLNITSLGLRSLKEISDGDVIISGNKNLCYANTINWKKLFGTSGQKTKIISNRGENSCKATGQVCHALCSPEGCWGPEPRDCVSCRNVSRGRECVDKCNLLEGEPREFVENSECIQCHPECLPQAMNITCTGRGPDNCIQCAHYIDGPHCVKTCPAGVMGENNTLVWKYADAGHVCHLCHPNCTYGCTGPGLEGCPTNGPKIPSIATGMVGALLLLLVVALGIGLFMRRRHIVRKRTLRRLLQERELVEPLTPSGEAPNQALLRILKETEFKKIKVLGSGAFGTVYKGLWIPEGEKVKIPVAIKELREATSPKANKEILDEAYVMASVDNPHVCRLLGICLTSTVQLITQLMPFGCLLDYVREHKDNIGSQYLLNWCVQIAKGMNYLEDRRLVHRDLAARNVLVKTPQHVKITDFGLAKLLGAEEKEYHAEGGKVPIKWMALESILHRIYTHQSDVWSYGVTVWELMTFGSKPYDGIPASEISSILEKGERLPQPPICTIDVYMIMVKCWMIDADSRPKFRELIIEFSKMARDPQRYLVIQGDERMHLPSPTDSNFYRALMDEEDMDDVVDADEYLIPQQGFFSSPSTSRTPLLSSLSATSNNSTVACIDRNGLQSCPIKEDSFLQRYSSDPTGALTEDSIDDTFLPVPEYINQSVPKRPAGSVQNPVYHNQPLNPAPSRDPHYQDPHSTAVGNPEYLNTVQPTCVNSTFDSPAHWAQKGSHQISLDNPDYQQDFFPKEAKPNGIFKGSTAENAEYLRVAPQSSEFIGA

As a reminder, the IC50 is the concentration that inhibits the measured activity by half. Regarding `O=C(NCCCO)c1cncc(-c2cncc(Nc3cccc(Cl)c3)n2)c1` [Cmd 39], in test [1], the midpoint of inhibition, the IC50, lay at 6.06 µM.

In test [1], `CN(C)CCCNc1cncc(-c2cncc(Nc3cccc(Cl)c3)n2)c1` [Cmd 35] displayed a half-inhibitory concentration (IC50) of 20.7 µM.

Turning to `CN(C)CCNc1cncc(-c2cncc(Nc3cccc(Cl)c3)n2)c1` [Cmd 33, N′-[5-[6-[(3-chlorophenyl)amino]pyrazinyl]-3-pyridinyl]-N^2,N^2-dimethyl-1,2-ethanediamine], the “tumor growth delay (tumor size)” value in test [2] is given as “delay of tumor size progression”; in test [2] (listed as compound 33), “tumor growth delay”.
